According to patent US7423149B2, “Substituted n-aryl amidines as selective D1 dopamine receptor antagonists for the treatment of obesity and CNS disorders” (Schering Corporation, priority 2003, dated 2008):

Target: T1, human Dopamine D1 receptor (Homo sapiens, UniProt P21728)
T1 construct: expressed in transfected cells; host or cells: Ltk- cells (mouse fibroblasts), membrane preparation
Assay: radioligand binding competition assay, displacement of [3H]SCH 23390 from D1 receptor (Ltk-cells membranes);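 note: under 5 nM class also requires D2 to D1 selectivity above 500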
Details: class combines Ki (D1) and, for A and B, D2:D1 selectivity (Ki D2 / Ki D1); read-out: D1 binding and D2:D1 Selectivity
From the text: Biological Activity: Compounds from this disclosure have been biologically characterized by their ability to displace a known D1-like selective ligand, [3H]SCH 23390 from the human Dopamine D1 receptor, and a known D2-like selective ligand, [3H] Methylspiperone, from the human Dopamine D2 and D4 receptors.
Affinity values (Ki) of compounds at human dopamine receptors were ascertained using radioligand binding competition assays. Cells expressing D1 (Ltk-cells), D2 (long variant, Ltk-cells), D4 (CHO cells) and D5 (GH4C1 cells) receptors were lysed in hypotonic buffer for membrane preparation. Membranes were incubated with various concentrations of test compound and 1 nM [3H] SCH 23390 (D1 and D5) and 0.2 nM [3H] Methylspiperone for (D2 and D4) assays. Non-specific binding was defined as binding in the presence of 10 micromolar of SCH 23390 for D1 and D5 assays and 10 micromolar butaclamol for D2 and D4 assays. Following incubation to equilibrium (1 hour at room temperature), bound radioligand was separated from free by rapid filtration. Bound radioactivity on the dried filters was quantified by liquid scintillation counting.
Selectivity is determined by dividing Ki for D2, D4 or D5 receptors by Ki for D1 receptor.

T1 sequence (P21728 whole entry): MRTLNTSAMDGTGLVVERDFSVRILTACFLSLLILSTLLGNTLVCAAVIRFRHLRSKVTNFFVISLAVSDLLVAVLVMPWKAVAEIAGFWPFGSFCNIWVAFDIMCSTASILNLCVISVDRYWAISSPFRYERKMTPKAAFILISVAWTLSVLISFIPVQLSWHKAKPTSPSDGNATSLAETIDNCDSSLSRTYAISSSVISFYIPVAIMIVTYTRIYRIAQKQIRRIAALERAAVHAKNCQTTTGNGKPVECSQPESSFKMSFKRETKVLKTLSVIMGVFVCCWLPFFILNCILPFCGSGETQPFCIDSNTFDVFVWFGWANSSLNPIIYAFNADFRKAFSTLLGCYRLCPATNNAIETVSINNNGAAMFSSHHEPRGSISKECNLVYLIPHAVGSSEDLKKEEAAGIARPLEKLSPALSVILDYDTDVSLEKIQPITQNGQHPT

SMILES | Ki [nM]
N=C(/C=C/c1ccc2c(c1)OCCO2)Nc1ccc(Cl)cc1 [Example 105] | 50 to 10000
N=C(/C=C/c1ccc(-c2ccc3[nH]ccc3c2)cc1)Nc1ccc(Cl)cc1 [Example 21, N-(4-chloro-phenyl)-3-[4-(1H -indol-5-yl)-phenyl]-acrylamidine] | < 10
N=C(/C=C/c1ccc(-c2cccc([N+](=O)[O-])c2)cc1)Nc1ccc(Cl)cc1 [Example 41] | 10 to 50
C=Cc1ccc(-c2ccc(/C=C/C(=N)Nc3ccc(Cl)cc3)cc2)cc1 [Example 59] | 10 to 50
CCC(C)CN1CCN(c2ccc(/C=C/C(=N)Nc3ccc(Cl)cc3)c(Cl)c2)CC1 (centres unmarked) [Example 83] | 50 to 10000
N=C(/C=C/c1ccc(N2CCN(Cc3cccs3)CC2)cc1Cl)Nc1ccc(Cl)cc1 [Example 47] | 10 to 50
N=C(/C=C/c1ccc(N2CCN(Cc3ccccc3)CC2)cc1)Nc1ccc(Cl)cc1 [Example 36] | 10 to 50
COc1ccc(/C=C\C(=N)Nc2ccc(Cl)cc2)c(F)c1 [Example 85] | 50 to 10000
N=C(Cc1ccc2ccccc2c1)Nc1ccc(Cl)cc1 [Example 132] | 50 to 10000
N=C(/C=C/c1ccc(N2CCN(C3CCCC(C(F)(F)F)C3)CC2)cc1Cl)Nc1ccc(Cl)cc1 (centres unmarked) [Example 74] | 10 to 50
N=C(/C=C/c1ccccc1Br)Nc1ccc(Cl)cc1 [Example 76] | 50 to 10000
N=C(/C=C/c1ccc(N2CCCC3CCCCC32)cc1)Nc1ccc(Cl)cc1 (centres unmarked) [Example 126] | 50 to 10000
N=C(/C=C/c1ccc(Cc2cccnc2)cc1)Nc1ccc(Br)cc1 [Example 24] | 10 to 50
CN(C)c1ccc(/C=C/C(=N)Nc2ccc(Cl)cc2)cc1 [Example 37] | 10 to 50
N#Cc1ccc(-c2ccc(/C=C/C(=N)Nc3ccc(Cl)cc3)cc2)cc1 [Example 43] | < 10
N=C(/C=C/c1ccc(-c2ccc(CO)cc2)cc1)Nc1ccc(Cl)cc1 [Example 111] | 50 to 10000
N=C(/C=C/c1ccc(Cc2ccncc2)cc1)Nc1ccc(Cl)cc1 [Example 35] | 10 to 50
CN1CCN(Cc2ccc(-c3ccc(/C=C/C(=N)Nc4ccc(Cl)cc4)cc3)cc2)CC1 [Example 52] | 10 to 50
COc1ccc(/C=C/C(=N)Nc2ccc(Cl)cc2)cc1Cl [Example 65] | 10 to 50
N=C(/C=C/c1ccc(-c2ccc(CN3CCNCC3)cc2)cc1)Nc1ccc(Cl)cc1 [Example 68] | 10 to 50
N=C(/C=C/c1ccc(-c2cc(F)cc(F)c2)cc1)Nc1ccc(Cl)cc1 [Example 99] | 50 to 10000

SMILES | Ki [nM]
N=C(Nc1ccc(Cl)cc1)c1ccc2cc(N3CCN(Cc4ccccc4)CC3)ccc2c1 [Example 61] | 10 to 50
N=C(/C=C/c1ccc(-c2ccsc2)cc1)Nc1ccc(Cl)cc1 [Example 64] | 10 to 50
N=C(/C=C/c1ccc(-n2ccnc2)cc1)Nc1ccc(Cl)cc1 [Example 88] | 50 to 10000
CC(CN1CCN(c2ccc(/C=C/C(=N)Nc3ccc(Cl)cc3)c(Cl)c2)CC1)c1ccccc1 (centres unmarked) [Example 45] | 10 to 50
COc1ccc(NC(=N)/C=C/c2ccc(N3CCNCC3)cc2Cl)cc1Cl [Example 96] | 50 to 10000
COc1ccc(/C=C/C(=N)Nc2ccc(Cl)cc2)c(F)c1 [Example 54] | 10 to 50
N=C(/C=C/c1ccc(-c2cccc(F)c2)cc1)Nc1ccc(Cl)cc1 [Example 58] | 10 to 50
CN1CCN(c2ccc3cc(C(=N)Nc4ccc(Cl)cc4)ccc3c2)CC1 [Example 112] | 50 to 10000
COc1ccc(/C=C/C(=N)Nc2cccc(C#N)c2)cc1 [Example 91] | 50 to 10000
Cc1ccc(NC(=N)/C=C/c2ccc(Cc3cccnc3)cc2)cc1 [Example 31] | 10 to 50
N=C(/C=C/c1ccc(N2CCCCC2)cc1)Nc1ccc(Cl)cc1 [Example 84] | 50 to 10000
COc1ccc(/C=C/C(=N)Nc2ccc(F)c(Cl)c2)cc1 [Example 18] | 50 to 10000
N=C(Nc1ccc(Cl)cc1)c1ccc(-c2ccccc2)cc1 [Example 118] | 50 to 10000
N=C(/C=C/c1cccc2ccccc12)Nc1ccc(Cl)cc1 [Example 12] | 50 to 10000
N=C(/C=C/c1ccc(-c2ccccn2)cc1)Nc1ccc(Cl)cc1 [Example 25] | 10 to 50
CN1c2ccccc2Sc2cc(/C=C/C(=N)Nc3ccc(Cl)cc3)ccc21 [Example 50] | 10 to 50
COc1cccc2ccc(C(=N)Nc3ccc(Cl)cc3)nc12 [Example 94, N-(4-chloro-phenyl)-8-methoxy-quinoline-2-carboxamidine] | 50 to 10000
N=C(/C=C/c1ccccc1)Nc1ccc(Cl)cc1 [Example 114] | 50 to 10000
CN(C)c1ccc(/C=C/C(=N)Nc2ccc(Cl)cc2)c2ccccc12 [Example 101] | 50 to 10000
N=C(Nc1ccc(Cl)cc1)c1ccc2cc(N3CCNCC3)ccc2c1 [Example 71] | 10 to 50
COc1ccc(/C=C/C(=N)Nc2ccc(Cl)cc2)c(Cl)c1OC [Example 29] | 10 to 50

SMILES | Ki [nM]
N=C(/C=C/c1ccc(N2CCOCC2)cc1)Nc1ccc(Cl)cc1 [Example 86] | 50 to 10000
Cc1ccc(/C=C/C(=N)Nc2ccc(Cl)cc2)cc1 [Example 28] | 50 to 10000
N=C(/C=C/c1ccncc1)Nc1ccc(Cl)cc1 [Example 14] | 50 to 10000
N=C(/C=C/c1ccc2ccccc2c1)Nc1ccc(Cl)cc1 [Example 78] | 50 to 10000
N=C(/C=C/c1ccc(-c2ccccc2)cc1)Nc1ccc(Cl)cc1 [Example 16] | 10 to 50
N=C(Nc1ccc(Cl)cc1)c1ccc2ccccc2n1 [Example 127] | 50 to 10000
COc1ccc(NC(=N)/C=C/c2ccc(Cc3cccnc3)cc2)cc1 [Example 121] | 50 to 10000
N=C(/C=C/c1ccc(N2CCN(c3cccc(Cl)c3)CC2)cc1)Nc1ccc(Cl)cc1 [Example 93] | 50 to 10000
N=C(/C=C/c1ccc(Cc2cccnc2)cc1)Nc1ccc(Cl)c(O)c1 [Example 128] | 50 to 10000
CC(C)(C)c1ccc(-c2ccc(/C=C/C(=N)Nc3ccc(Cl)cc3)cc2)cc1 [Example 131] | 50 to 10000
N=C(/C=C/c1ccc(Cl)s1)Nc1ccc(Cl)cc1 [Example 67] | 10 to 50
N=C(/C=C/c1cc(C(F)(F)F)cc(C(F)(F)F)c1)Nc1ccc(Cl)cc1 [Example 2] | 50 to 10000
COc1ccc(/C=C\C(=N)Nc2ccc(Cl)cc2)cc1 [Example 81] | 50 to 10000
N=C(/C=C/c1ccc(Cc2cccnc2)cc1)Nc1ccc(O)cc1 [Example 8] | 50 to 10000
COc1cccc(OC)c1/C=C/C(=N)Nc1ccc(Cl)cc1 [Example 27] | 50 to 10000
COc1ccc(/C=C/C(=N)Nc2cc(F)cc(F)c2)cc1 [Example 55] | 10 to 50
CC(C)(C)c1ccc(/C=C/C(=N)Nc2ccc(Cl)cc2)cc1 [Example 7] | 10 to 50
N=C(/C=C/c1ccccc1Cl)Nc1ccc(Cl)cc1 [Example 73] | 10 to 50
N=C(/C=C/c1ccc(Cl)cc1Cl)Nc1ccc(Cl)cc1 [Example 13] | 10 to 50
N=C(/C=C/c1ccc(Cl)c(Cl)c1)Nc1ccc(Cl)cc1 [Example 102] | 50 to 10000
CC(=O)c1ccc(-c2ccc(/C=C/C(=N)Nc3ccc(Cl)cc3)cc2)cc1 [Example 49] | 10 to 50

SMILES | Ki [nM]
CCn1c2ccccc2c2cc(/C=C/C(=N)Nc3ccc(Cl)cc3)ccc21 [Example 100] | 50 to 10000
CC(C)c1ccc(/C=C/C(=N)Nc2ccc(Cl)cc2)cc1 [Example 10] | 10 to 50
N=C(/C=C/c1ccc(OC(F)(F)F)cc1)Nc1ccc(Cl)cc1 [Example 4] | 50 to 10000
CCCCN(CCCC)c1ccc(/C=C/C(=N)Nc2ccc(Cl)cc2)cc1 [Example 115] | 50 to 10000
N=C(/C=C/c1cc(Cl)cc(Cl)c1)Nc1ccc(Cl)cc1 [Example 109] | 50 to 10000
CN1CCN(c2ccc(/C=C/C(=N)Nc3ccc(Cl)cc3)c(Cl)c2)CC1 [Example 33] | < 10
CCC1CCC(N2CCN(c3ccc(/C=C/C(=N)Nc4ccc(Cl)cc4)c(Cl)c3)CC2)CC1 (centres unmarked) [Example 56] | 10 to 50
N=C(/C=C/c1ccc(N2CCN(Cc3cccc(OC(F)(F)F)c3)CC2)cc1Cl)Nc1ccc(Cl)cc1 [Example 53] | 10 to 50
COc1ccc(/C=C/C(=N)Nc2cccc([N+](=O)[O-])c2)cc1 [Example 82] | 50 to 10000
CCN(CC)c1ccc(/C=C/C(=N)Nc2ccc(Cl)cc2)c(Cl)c1 [Example 40] | < 10
N=C(/C=C/c1ccc(CN2CCCCC2)cc1)Nc1ccc(Cl)cc1 [Example 6] | 50 to 10000
COc1ccc(/C=C/C(=N)Nc2ccc(C(C)(C)C)cc2)cc1 [Example 133] | 50 to 10000
Cc1ccc(C)n1-c1ccc(/C=C/C(=N)Nc2ccc(Cl)cc2)cc1 [Example 95] | 50 to 10000
N=C(/C=C/c1ccc(Cc2ccccn2)cc1)Nc1ccc(Cl)cc1 [Example 19] | 50 to 10000
N=C(/C=C/c1ccc(-c2cccc(C(=O)O)c2)cc1)Nc1ccc(Cl)cc1 [Example 120] | 50 to 10000
N=C(/C=C/c1ccc(Cc2cccnc2)cc1)Nc1ccc2c(c1)CCC2 [Example 15] | 10 to 50
N=C(/C=C/c1ccc(N)cc1)Nc1ccc(Cl)cc1 [Example 98] | 50 to 10000
CO/N=C(/C)c1ccc(-c2ccc(/C=C/C(=N)Nc3ccc(Cl)cc3)cc2)cc1 [Example 125, N-(4-chloro-phenyl)-3-[4′-(1-methoxyimino-ethyl)-biphenyl-4-yl]-acrylamidine] | 50 to 10000
COc1cc(N(C)C)ccc1/C=C/C(=N)Nc1ccc(Cl)cc1 [Example 51] | 10 to 50
CCN(CC)c1ccc(/C=C/C(=N)Nc2ccc(Cl)cc2)cc1 [Example 38] | 10 to 50
